Experimental data: patent publication US8455440B2, “Combination anticoagulant therapy with a compound that acts as a factor Xa inhibitor” (Millennium Pharmaceuticals, Inc., priority 2007, dated 2013)

Tested on: Thrombosis on mouse mesenteric arteries
Assay: FeCl3 thrombosis on mouse mesenteric arteries
Type: in vivo, mice
Conditions: for Mean time to occlusion: P2Y12^+/− mice, 10 mg/kg
Excerpt: Commonly used P2Y12 antagonists such as clopidogrel are prescribed at doses that block 40-50% of the P2Y12 receptors on platelets of treated patients. It has been shown that P2Y12^+/− mice which express ˜50% of the receptor on their platelets compared to wild type control (P2Y12^+/+), display an intermediate thrombosis phenotype between wild type and mice completely deficient in P2Y12 (P2Y12^−/−). (Andre, P., et al., J Clin Invest, 2003. 112(3):398-406). P2Y12 regulates platelet adhesion/activation, thrombus growth, and thrombus stability in injured arteries. The effect of Compound A was studied in a thrombosis model with P2Y12^+/− mice to effectively mimic the combination of dual dosing of factor Xa inhibitor and P2Y12 antagonist in humans.
Thrombosis on mouse mesenteric arteries (shear rate 1000-1300 s^−1) was performed and recorded as previously described (Andre, P., et al., J Clin Invest, 2003. 112(3):398-406). Platelets were labeled in situ using rhodamine 6G (0.2 mg/mL) and administered through the tail vein 10 min before visualization of the arteries. Vessel-wall injury was triggered by a 1×1-mm filter paper saturated with a 10% FeCl3 solution. After 5 minutes, the filter paper was removed and mesenteric arteries rinsed with warmed saline (37° C.). Platelet vessel-wall interactions were recorded for 40 additional minutes or until full occlusion occurred and persisted for more than 40 seconds. C57Bl6J mice (wild type control or P2Y12^+/−) were orally gavaged with vehicle control, compound A (2, 4, 10 mg/kg) two hours prior to vascular injury. Thrombosis was analyzed in real time using Simple PCI software. The fluorescence intensity was recorded at a rate of 2 Hz for 40 minutes and plotted over time. Time to occlusion (cessation of blood flow) was analyzed. Plasma concentrations of Compound A were determined on blood collected 2 min post-occlusion or 42 min after start of vascular injury.

[1] = wild type mice, 10 mg/kg oral gavage

COc1ccc(NC(=O)c2ccc(C(=N)N(C)C)cc2)c(C(=O)Nc2ccc(Cl)cn2)c1 [Compound A, [2-({4-[(dimethylamino)iminomethyl]phenyl}carbonylamino)-5-methoxyphenyl]-N-(5-chloro(2-pyridyl))carboxamide]
plasma concentration sufficient to prevent vascular occlusion (P2Y12^+/− animals): more than 76 ng/mL
time to occlusion (P2Y12^+/− mice with Compound A (756.7 seconds without)): over 2100 seconds
Mean time to occlusion (Experiment 1): 2143 s
Mean time to occlusion (Experiment 2): 2399 s
Mean time to occlusion (Experiment 3): 2305 s
circulating plasma concentration that prevented vascular occlusion (wild type animals): more than 1000 ng/mL
time for appearance of first thrombus [1]: significantly delayed
time to occlusion [1]: significantly delayed
antithrombotic effect (wild type mice, 2 and 4 mg/kg oral gavage two hours prior to injury): non-effective
